Reference: patent US8476449B2, “Radioactive iodine labeled organic compound or salt thereof” (Nihon Medi-Physics Co., Ltd., priority 2010, dated 2013)
Like-named read-outs stand apart in the source and are kept apart here.

Key:
[1] = target: tau protein aggregate (Homo sapiens, UniProt P10636); details: tau 0.37 μmol/L, incubated 1 to 1.5 hours, PD-10 column
Description: Mixed solutions of a tau protein aggregate (final concentration 0.37 μmol/L, prepared in Example 9) or an non-aggregated tau protein (final concentration 0.37 μmol/L) and radioactive iodine-labeled compound 1 (2.0 kBq (0.055 μCi)), radioactive iodine-labeled compound 2 (20 kBq (0.55 μCi)) or radioactive iodine-labeled form 3 (2.0 kBq (0.055 μCi)) were incubated for 1 hour to 1.5 hours, and then subjected to size exclusion chromatography (PD-10 column (GE Healthcare Japan), eluent: phosphate buffered-saline (PBS)). Subsequently, the radioactivity of an eluted fraction of the tau protein aggregate or the non-aggregated tau protein was measured in a γ counter.

[2] = target: T1, Aβ42 aggregate (Homo sapiens, UniProt P05067); test: Evaluation experiment of binding to amyloid β (filter radioactivity); details: Aβ42 aggregate 30 nmol/L, incubation 3 hours
T1 construct: Aβ (1-42) peptide; purchased Peptide Institute, Inc
Description: 0.5 mg of Aβ (1-42) peptide (purchased from Peptide Institute, Inc.) was dissolved in 2 mL of a PBS buffer containing 1 mmol/L of EDTA and incubated at 37° C. for 42 hours, thus preparing an Aβ42 aggregate. A glass tube was charged with a 10 vol % ethanol aqueous solution (900 μL), Aβ42 aggregate (50 μL, final concentration 30 nmol/L), and radioactive iodine-labeled compound 1, radioactive iodine-labeled compound 2, or radioactive iodine-labeled compound 3 (each 50 μL, 0.018-0.097 μCi), and incubation was carried out for 3 hours. B/F separation was carried out using a cell harvester (Brandel, M-24), and the radioactivity on the filter was measured in a γ counter. The proportion (%) of the radioactivity count on the filter relative to the radioactivity count of each sample used was determined, and binding of each compound to the Aβ42 aggregate was evaluated.
As a control, 4-dimethylamino-4′-iodochalcone (hereinafter, called a chalcone derivative) was prepared in accordance with a method described in the literature (Ono et al., Bioorg Med Chem, 15, 6802-6809, 2007), and the same experiment was carried out (radioactivity count in sample: […]-0.37 kBq (0.023-0.01 μCi)).

[3] = mice
Description: Mice were decapitated after 2, 10, 30, and 60 minutes, and then each organ was then removed after blood collection, and radiation counts were measured in a γ counter.

[4] = system: phosphorylated tau protein; test: In vitro autoradiography using Alzheimer's disease patient-derived brain slice; assay type: binding, human; details: hippocampus slice of Alzheimer's disease patient, 3.07 kBq/mL, 1 hour
Description: A postmortem brain slice (paraffin-embedded slice) of the hippocampus of an Alzheimer's disease patient was purchased from BioChain. The brain slice was deparaffinized, a 10% ethanol-containing PBS solution (3.07 kBq/mL (0.083 μCi/mL)) of radioactive iodine-labeled compound 3 was added thereto, and a reaction was carried out for 1 hour. Subsequently, the sample was washed in sequence with a saturated lithium carbonate 50 vol % ethanol aqueous solution (2 minutes×2), a 50 volt ethanol aqueous solution (2 minutes×2), and purified water (30 seconds×2). The sample was exposed to light on an imaging plate for 48 hours, and analyzed using a bioimaging analyzer (model: BAS-5000, Fuji Photo Film Co., Ltd.). Furthermore, an adjacent slice was stained by an anti-phosphorylated tau protein antibody (AT8, Thermo).

[5] = 2 minutes after tail vein administration
[6] = 10 minutes after tail vein administration
[7] = 30 minutes after tail vein administration
[8] = 60 minutes after tail vein administration

T1 sequence (P05067 672-713 limits assumed): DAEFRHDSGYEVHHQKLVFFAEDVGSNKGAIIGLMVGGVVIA
tau protein aggregate, sequence (P10636 1-441 isoform P10636-8): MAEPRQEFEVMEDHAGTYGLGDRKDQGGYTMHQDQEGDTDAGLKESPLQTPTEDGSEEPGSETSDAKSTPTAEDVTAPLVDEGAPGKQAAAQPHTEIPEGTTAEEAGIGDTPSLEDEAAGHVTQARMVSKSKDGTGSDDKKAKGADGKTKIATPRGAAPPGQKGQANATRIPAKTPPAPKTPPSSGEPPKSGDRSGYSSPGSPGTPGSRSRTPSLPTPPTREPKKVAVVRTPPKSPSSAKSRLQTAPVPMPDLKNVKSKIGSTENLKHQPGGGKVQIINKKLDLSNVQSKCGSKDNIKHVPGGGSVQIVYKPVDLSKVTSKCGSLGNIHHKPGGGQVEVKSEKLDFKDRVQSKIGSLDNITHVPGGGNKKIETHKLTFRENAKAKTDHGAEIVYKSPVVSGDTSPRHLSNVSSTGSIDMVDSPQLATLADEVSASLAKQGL

SMILES: O=C1/C(=C/c2ccc(-c3cccc([125I])c3)o2)NC(=S)N1CCc1c[nH]cn1 [Radioactive iodine-labeled compound 3, (Z)-3-(2-(1H-Imidazol-4-yl)ethyl)-5-((5-(3-(^125I)iodophenyl)furan-2-yl)methylene)-2-thioxoimidazolidin-4-one]
- Radioactivity of eluted fraction: aggregated tau vs non aggregated tau vs buffer [1]: specifically binding to a tau protein aggregate
- Binding to the Aβ42 aggregate (proportion of radioactivity count on the filter) [2]: significantly lower
- Amount of radioactivity in organ: Blood [3, 5]: 8.16 ± 1.21 % ID/g
- Amount of radioactivity in organ: Blood [3, 6]: 2.77 ± 0.21 % ID/g
- Amount of radioactivity in organ: Blood [3, 7]: 2.11 ± 0.28 % ID/g
- Amount of radioactivity in organ: Blood [3, 8]: 1.48 ± 0.27 % ID/g
- Amount of radioactivity in organ: Brain [3, 5]: 1.54 ± 0.10 % ID/g
- Amount of radioactivity in organ: Brain [3, 6]: 1.30 ± 0.12 % ID/g
- Amount of radioactivity in organ: Brain [3, 7]: 0.66 ± 0.08 % ID/g
- Amount of radioactivity in organ: Brain [3, 8]: 0.25 ± 0.02 % ID/g
- Amount of radioactivity in organ: Heart [3, 5]: 8.48 ± 0.97 % ID/g
- Amount of radioactivity in organ: Heart [3, 6]: 2.78 ± 0.19 % ID/g
- Amount of radioactivity in organ: Heart [3, 7]: 1.73 ± 0.18 % ID/g
- Amount of radioactivity in organ: Heart [3, 8]: 1.30 ± 0.37 % ID/g
- Amount of radioactivity in organ: Intestine [3, 5]: 2.55 ± 0.16 % ID/g
- Amount of radioactivity in organ: Intestine [3, 6]: 7.41 ± 1.21 % ID/g
- Amount of radioactivity in organ: Intestine [3, 7]: 17.3 ± 1.67 % ID/g
- Amount of radioactivity in organ: Intestine [3, 8]: 23.6 ± 2.39 % ID/g
- Amount of radioactivity in organ: Kidney [3, 5]: 12.5 ± 0.76 % ID/g
- Amount of radioactivity in organ: Kidney [3, 6]: 7.34 ± 0.70 % ID/g
- Amount of radioactivity in organ: Kidney [3, 7]: 4.97 ± 0.71 % ID/g
- Amount of radioactivity in organ: Kidney [3, 8]: 3.37 ± 0.30 % ID/g
- Amount of radioactivity in organ: Liver [3, 5]: 35.0 ± 2.27 % ID/g
- Amount of radioactivity in organ: Liver [3, 6]: 33.3 ± 1.41 % ID/g
- Amount of radioactivity in organ: Liver [3, 7]: 27.2 ± 2.05 % ID/g
- Amount of radioactivity in organ: Liver [3, 8]: 22.8 ± 2.13 % ID/g
- Amount of radioactivity in organ: Lung [3, 5]: 11.4 ± 1.55 % ID/g
- Amount of radioactivity in organ: Lung [3, 6]: 4.39 ± 0.42 % ID/g
- Amount of radioactivity in organ: Lung [3, 7]: 3.00 ± 0.27 % ID/g
- Amount of radioactivity in organ: Lung [3, 8]: 2.03 ± 0.14 % ID/g
- Amount of radioactivity in organ: Pancreas [3, 5]: 3.30 ± 0.86 % ID/g
- Amount of radioactivity in organ: Pancreas [3, 6]: 2.15 ± 0.23 % ID/g
- Amount of radioactivity in organ: Pancreas [3, 7]: 1.15 ± 0.18 % ID/g
- Amount of radioactivity in organ: Pancreas [3, 8]: 0.86 ± 0.08 % ID/g
- Amount of radioactivity in organ: Spleen [3, 5]: 9.23 ± 0.63 % ID/g
- Amount of radioactivity in organ: Spleen [3, 6]: 10.9 ± 2.78 % ID/g
- Amount of radioactivity in organ: Spleen [3, 7]: 8.51 ± 2.68 % ID/g
- Amount of radioactivity in organ: Spleen [3, 8]: 8.46 ± 2.57 % ID/g
- Amount of radioactivity in organ: Stomach [3, 5]: 1.33 ± 0.25 % ID/g
- Amount of radioactivity in organ: Stomach [3, 6]: 2.67 ± 1.59 % ID/g
- Amount of radioactivity in organ: Stomach [3, 7]: 4.55 ± 1.28 % ID/g
- Amount of radioactivity in organ: Stomach [3, 8]: 7.45 ± 5.07 % ID/g
- Radioactivity distribution on brain slice vs anti-phosphorylated tau antibody (AT8) staining [4]: coincided with the distribution (FIG. 10b) of the phosphorylated tau protein
